Entries after “also recorded” stand apart in the source; their conditions may differ. Like-named read-outs stand apart in the source and are kept apart here.
Key:
[1] = tested on: patients with advanced solid malignancies; test: Phase I study of SAHA in combination with Carboplatin and Paclitaxel: dose-limiting and other toxicities; format: in vivo, human; settings: in the combination
Description: The study is designed to define dose-limiting and non-dose limiting toxicities associated with this combination, and to obtain evidence of anti-tumor activity.
Both Carboplatin and Paclitaxel are administered on Day 1 of each treatment cycle. […] Each treatment cycle lasts for 3 weeks.
Definition of dose-limiting toxicity (DLT): Toxicities must be attributable to the study drug(s) to constitute DLT. […] If baseline value is elevated prior to drug therapy, an increase is not considered a DLT unless there is an elevation by more than two grades, and it is of clinical significance. Management and dose modifications associated with the above adverse events are outlined below.
Dosing delays and dose modifications: No intra-patient dose escalation is used. Chemotherapy doses may be reduced for hematological and non-hematological effects. Dose adjustments are to be made according to the system showing the greatest degree of toxicity. Toxicity is graded using the National Cancer Institute Common Toxicity Criteria (NCI CTC) for adverse events (version 3.0). Treatment may be delayed no more than two weeks to allow recovery from toxicity. Dose adjustments for toxicity are made according to the following guidelines.
Methods: Eligible patients were those with advanced solid malignancies who were candidates for combination therapy with Carboplatin and Paclitaxel. […] Carboplatin and Paclitaxel were given on Day 1 of each cycle.

[2] = Plasma pharmacokinetics of SAHA and its two major metabolites (LC-MS/MS) in the phase I study; format: in vivo, human
Description: Samples are assayed by the HPLC method (Kelly W K, Richon V M, O'Connor O, et al. Clin. Cancer Res. 2003; 9:3578-88) or by LC/MS assay. […] Quantitation of Paclitaxel and total platinum concentrations is done by validated methodology. […] Compartmental modeling is done with the computer program ADAPT II. Non-compartmental modeling is done with the […] function as implemented by the computer program […]. […] The time that Paclitaxel concentrations remain above 0.05 μM is determined using a limited sampling strategy with the 24-hour sample. […] Methods: Eligible patients were those with advanced solid malignancies who were candidates for combination therapy with Carboplatin and Paclitaxel. […] Carboplatin and Paclitaxel were given on Day 1 of each cycle.

[3] = oral SAHA with food; cited from earlier work
[4] = tested on: carcinogen-induced (N-methylnitrosourea) mammary tumors; settings: rats, SAHA in their diet over the 130 days of the study; cited from earlier work
[5] = tested on: patients with advanced solid malignancies; settings: on this schedule; cited from earlier work
[6] = human, plasma, po, oral SAHA, patients, plasma, Example 8, read-out: t1/2 (elimination half life) (converted)

Q: For `CC(=O)O[C@H]1C(=O)[C@@]2(C)[C@H]([C@H](OC(=O)c3ccccc3)[C@]3(O)C[C@H](OC(=O)[C@H](O)[C@@H](NC(=O)c4ccccc4)c4ccccc4)C(C)=C1C3(C)C)[C@]1(OC(C)=O)CO[C@@H]1C[C@@H]2O` [Paclitaxel, 5-beta, 20-epoxy-1,2-alpha, 4,7-beta, 10-beta, 13-alpha-hexahydroxytax-11-en-9-one 4,10-diacetate 2-benzoate 13-ester with (2R,3S)—N-benzoyl-3-phenylisoserine], which “Dose recommended for phase II studies” value ([1]; Day 1, 3 week cycles) is on record?
A: 200 mg/m^2

Q: Which “t1/2 (elimination half life)” value ([2]; human, in vivo, po) does the source give for `O=C(CCCCCCC(=O)Nc1ccccc1)NO[C@@H]1O[C@H](C(=O)O)[C@@H](O)[C@H](O)[C@H]1O` [SAHA glucuronide] here?
A: approximately 2 h

Q: With `[NH2][Pt]1([NH2])[O]C(=O)C2(CCC2)C(=O)[O]1` [Carboplatin, platinum, diammine [1,1-cyclobutane-dicarboxylato (2-)-0,0′]-, (SP-4-2)] as the compound, how does the “Dose recommended for phase II studies” value ([1]; Day 1, 3 week cycles) read?
A: 6 AUC

Q: Which “bioavailability when taken with food” value [3] does the source give for `O=C(CCCCCCC(=O)Nc1ccccc1)NO` [SAHA, N-Hydroxy-N′-phenyl octanediamide] here?
A: does not alter the bioavailability

Q: What about the “development and continued growth of carcinogen-induced (N-methylnitrosourea) mammary tumors” value [4] of the same compound?
A: effective at inhibiting

Q: And the “Dose recommended for phase II studies” value ([1]; PO QD (Days 1-14), 3 week cycles)?
A: 400 mg

Q: And the “effect of Carboplatin and Paclitaxel on SAHA pharmacokinetics” value ([2]; Day -4 (SAHA alone) vs Day 1 (with Carboplatin and Paclitaxel))?
A: did not alter SAHA pharmacokinetics; also recorded: not altered

Q: And the “SAHA clearance on Day 1 as compared to Day -4” value ([2]; Example 9, most recent data)?
A: potential decreased clearance

Q: What about the half-life [2, 6] of the same compound?
A: 1.6 ± 0.5 h

Q: What about the Tmax ([2]; human, plasma, po, read-out: Tmax (time to maximum plasma or serum concentration)) of the same compound?
A: 0.5 to 2 h

Q: What about the AUC versus dose ([2]; oral SAHA 200-400 mg, patients) of the same compound?
A: increased with dose

Q: And the absorption ([2]; oral SAHA, patients)?
A: rapidly absorbed

Q: What about the “CL/F (clearance/bioavailability)” value ([2]; oral SAHA, patients, Example 8) of the same compound?
A: 5.8 ± 1.7 L/min

Q: And the “RP2D of single agent SAHA” value [5]?
A: 400 mg

Q: Which half-life ([2]; human, plasma, po, Example 9, further results, patients after oral SAHA, read-out: t1/2 of acid metabolite (converted)) does the source give for `O=C(O)CCC(=O)Nc1ccccc1` [4-Anilino-4-oxobutanoic acid] here?
A: 4.1 ± 1.3 h

Q: What about the half-life [2, 6] of the same compound?
A: ~6 h

Q: What about the “Cmax relative to SAHA Cmax” value ([2]; metabolite in plasma after oral SAHA, fold greater than SAHA Cmax) of the same compound?
A: 1.5-7 fold

Reference: patent US20090105329A1 (priority 2005, published 2009)
